Converted amounts (≈) assume the structure as drawn. Like-named read-outs stand apart in the source and are kept apart here.
Experiments:
Assay type in all cases: cell-based
[1] = system: S. flexneri 2a CDC 4807-62; experiment: MIC, S. flexneri 2a CDC 4807-62; settings: Shigella flexneri, read-out: MIC
Description: (§1) The minimum inhibition concentrations (MIC) of the compounds obtained by the present invention were measured according to the standard method of Japanese Chemotherapy Association.

[2] = system: S. paratyphi B; experiment: MIC, S. paratyphi B; settings: Salmonella enterica, PARATYPHI
Description: as §1

[3] = system: P. aeruginosa ATCC9721; experiment: MIC, P. aeruginosa ATCC9721; settings: Pseudomonas aeruginosa; P. aeruginosa ATCC9721; read-out: MIC
Description: as §1

[4] = system: S. faecalis IFO3826; experiment: MIC, S. faecalis IFO3826; settings: Enterococcus faecalis, read-out: MIC
Description: as §1

[5] = system: S. aureus 209P JC-1; experiment: MIC, S. aureus 209P JC-1; settings: Staphylococcus aureus; S. aureus 209P JC-1; read-out: MIC
Description: as §1

[6] = system: S. sonnei SH72-415; experiment: MIC, S. sonnei SH72-415; settings: Shigella sonnei, SH72415, read-out: MIC
Description: as §1

[7] = system: P. vulgaris ATCC6398; experiment: MIC, P. vulgaris ATCC6398; settings: Proteus vulgaris, read-out: MIC
Description: as §1

[8] = system: P. fluorescens ATCC13525; experiment: MIC, P. fluorescens ATCC13525; settings: Pseudomonas fluorescens, read-out: MIC
Description: as §1

[9] = system: S. paratyphi A 144-12-93; experiment: MIC, S. paratyphi A 144-12-93; settings: Salmonella enterica, PARATYPHI
Description: as §1

[10] = system: S. newport 563; experiment: MIC, S. newport 563; settings: Salmonella enterica, read-out: MIC
Description: as §1

[11] = system: E. cloacae ATCC13047; experiment: MIC, E. cloacae ATCC13047; settings: Enterobacter cloacae
Description: as §1

[12] = system: S. epidermidis ATCC14990; experiment: MIC, S. epidermidis ATCC14990; settings: Staphylococcus epidermidis, read-out: MIC
Description: as §1

[13] = system: S. aureus Smith; experiment: MIC, S. aureus Smith; settings: Staphylococcus aureus, read-out: MIC
Description: as §1

[14] = system: S. flexneri Y NCTC 9730; experiment: MIC, S. flexneri Y NCTC 9730; settings: Shigella flexneri, NCTC9730, read-out: MIC
Description: as §1

[15] = system: B. subtilis ATCC6633; experiment: MIC, B. subtilis ATCC6633; settings: Bacillus subtilis; B. subtilis ATCC6633; read-out: MIC
Description: as §1

[16] = system: S. marcescens IFO12648; experiment: MIC, S. marcescens IFO12648; settings: Serratia marcescens, read-out: MIC
Description: as §1

[17] = system: S. dysenteriae 4379-60; experiment: MIC, S. dysenteriae 4379-60; settings: Shigella dysenteriae, 437960
Description: as §1

[18] = system: E. coli ATCC25922; experiment: MIC, E. coli ATCC25922; settings: Escherichia coli, read-out: MIC
Description: as §1

[19] = system: S. typhi 1099-77; experiment: MIC, S. typhi 1099-77; settings: Salmonella enterica
Description: as §1

[20] = system: P. mirabilis IFO3849; experiment: MIC, P. mirabilis IFO3849; settings: Proteus mirabilis, read-out: MIC
Description: as §1

[21] = system: C. freundii IFO12681; experiment: MIC, C. freundii IFO12681; settings: Citrobacter freundii, read-out: MIC
Description: as §1

[22] = system: S. typhimurium ATCC13311; experiment: MIC, S. typhimurium ATCC13311; settings: Salmonella enterica, read-out: MIC
Description: as §1

[23] = system: S. boyadii CDC 2064-59; experiment: MIC, S. boyadii CDC 2064-59
Description: as §1

[24] = system: P. cepacia ATCC25416; experiment: MIC, P. cepacia ATCC25416; settings: Burkholderia cepacia, read-out: MIC
Description: as §1

[25] = system: S. aureus ATCC25923; experiment: MIC, S. aureus ATCC25923; settings: Staphylococcus aureus; S. aureus ATCC25923; read-out: MIC
Description: as §1

[26] = system: P. maltophilia ATCC13637; experiment: MIC, P. maltophilia ATCC13637; settings: Stenotrophomonas maltophilia
Description: as §1

[27] = system: P. rettgeri ATCC14505; experiment: MIC, P. rettgeri ATCC14505; settings: Providencia rettgeri, read-out: MIC
Description: as §1

[28] = system: K. pneumoniae ATCC27736; experiment: MIC, K. pneumoniae ATCC27736; settings: Klebsiella pneumoniae, read-out: MIC
Description: as §1

[29] = system: S. aureus TASAKI; experiment: MIC, S. aureus TASAKI; settings: Staphylococcus aureus
Description: as §1

[30] = system: E. coli NIHJ JC-2; experiment: MIC, E. coli NIHJ JC-2; settings: Escherichia coli, NIHJJC2, read-out: MIC
Description: as §1

[31] = system: S. paratyphi C 33-76; experiment: MIC, S. paratyphi C 33-76; settings: Salmonella enterica, PARATYPHI
Description: as §1

[32] = system: S. anatum 677-69; experiment: MIC, S. anatum 677-69; settings: Salmonella enterica, 67769, read-out: MIC
Description: as §1

[33] = system: S. typhimurium IFO 12529; experiment: MIC, S. typhimurium IFO 12529; settings: Salmonella enterica, read-out: MIC
Description: as §1

[34] = system: P. putida ATCC12633; experiment: MIC, P. putida ATCC12633; settings: Pseudomonas putida
Description: as §1

[35] = system: P. vulgaris ATCC6380; experiment: MIC, P. vulgaris ATCC6380; settings: Proteus vulgaris, read-out: MIC
Description: as §1

SMILES | MIC [1] [mg/L] | MIC [2] [mg/L] | MIC [3] [mg/L] | MIC [4] [mg/L] | MIC [5] [mg/L] | MIC [6] [mg/L] | MIC [7] [mg/L] | MIC [9] [mg/L] | MIC [10] [mg/L] | MIC [11] [mg/L] | MIC [12] [mg/L] | MIC [13] [mg/L] | MIC [14] [mg/L] | MIC [15] [mg/L] | MIC [16] [mg/L] | MIC [17] [mg/L] | MIC [18] [mg/L] | MIC [20] [mg/L] | MIC [21] [mg/L] | MIC [22] [mg/L] | further results
CO/N=C(\C(=O)N[C@@H]1C(=O)N2C(C(=O)O)=C(COC(C)=O)CS[C@H]12)c1csc(N)n1 [CTX, cephotaxim] | 0.025 (≈ 0.0549 µM) | 0.1 (≈ 0.22 µM) | 3.13 (≈ 6.87 µM) | > 100 | 0.39 (≈ 0.856 µM) | 0.05 (≈ 0.11 µM) | ≤ 0.006 | 0.2 (≈ 0.439 µM) | 0.1 (≈ 0.22 µM) | 3.13 (≈ 6.87 µM) | 0.78 (≈ 1.71 µM) | 3.13 (≈ 6.87 µM) | 0.05 (≈ 0.11 µM) | 0.39 (≈ 0.856 µM) | 0.2 (≈ 0.439 µM) | 0.012 (≈ 0.0263 µM) | 0.1 (≈ 0.22 µM) | 0.05 (≈ 0.11 µM) | 0.1 (≈ 0.22 µM) | 0.05 (≈ 0.11 µM) | MIC [8]: 25 mg/L (≈ 54.9 µM); MIC ([19]; S. typhi 1099-77, read-out: MIC): 0.1 mg/L (≈ 0.22 µM); MIC [23]: 0.39 mg/L (≈ 0.856 µM); MIC [24]: 0.78 mg/L (≈ 1.71 µM); MIC [25]: 0.78 mg/L (≈ 1.71 µM); MIC [26]: 50 mg/L (≈ 110 µM); MIC [27]: 0.1 mg/L (≈ 0.22 µM); MIC [28]: 0.1 mg/L (≈ 0.22 µM); MIC [29]: 1.56 mg/L (≈ 3.43 µM); MIC [30]: 0.1 mg/L (≈ 0.22 µM); MIC [31]: ≤ 0.006 mg/L; MIC [32]: 0.1 mg/L (≈ 0.22 µM); MIC [33]: 0.2 mg/L (≈ 0.439 µM); MIC [34]: 50 mg/L (≈ 110 µM); MIC [35]: 0.05 mg/L (≈ 0.11 µM)
CN(C)CCn1nnnc1SCC1=C(C(=O)O)N2C(=O)[C@@H](NC(=O)Cc3csc(N)n3)[C@H]2SC1 [CTM, cephothiam] | 0.1 (≈ 0.19 µM) | 0.2 (≈ 0.38 µM) | > 100 | > 100 | 0.2 (≈ 0.38 µM) | 0.2 (≈ 0.38 µM) | > 100 | 0.39 (≈ 0.742 µM) | 0.39 (≈ 0.742 µM) | 50 (≈ 95.1 µM) | 0.39 (≈ 0.742 µM) | 0.39 (≈ 0.742 µM) | 0.78 (≈ 1.48 µM) | 0.39 (≈ 0.742 µM) | 6.25 (≈ 11.9 µM) | 0.05 (≈ 0.0951 µM) | 0.2 (≈ 0.38 µM) | 0.78 (≈ 1.48 µM) | 3.13 (≈ 5.95 µM) | 0.1 (≈ 0.19 µM) | MIC ([19]; TYPHI): 0.1 mg/L (≈ 0.19 µM); MIC [23]: 0.39 mg/L (≈ 0.742 µM); MIC [24]: 0.39 mg/L (≈ 0.742 µM); MIC [25]: 0.39 mg/L (≈ 0.742 µM); MIC [26]: > 100 mg/L; MIC [27]: 3.13 mg/L (≈ 5.95 µM); MIC [28]: 0.1 mg/L (≈ 0.19 µM); MIC ([29]; S. aureus TASAKI, standard method of Japanese Chemotherapy Association, read-out: MIC): 0.39 mg/L (≈ 0.742 µM); MIC [30]: 0.2 mg/L (≈ 0.38 µM); MIC [31]: 0.05 mg/L (≈ 0.0951 µM); MIC [32]: 0.2 mg/L (≈ 0.38 µM); MIC [33]: 0.2 mg/L (≈ 0.38 µM); MIC [34]: > 100 mg/L; MIC [35]: > 100 mg/L
